Laboratory results as given in ChEMBL document CHEMBL4602710 (ACS Med Chem Lett, 2020).
In brackets after ≈: the same amount, converted by molar mass.

Columns and labels:
[1] = molecular target: T1, Tyrosine-protein kinase SYK (Homo sapiens, UniProt P43405); experiment: Inhibition of SYK (unknown origin) using XL665-labeled peptide as substrate in presence of ATP measured after 30 mins by TR-FRET assay
[2] = molecular target: T1, Tyrosine-protein kinase SYK; experiment: Inhibition of SYK in human Ramos cells assessed as reduction in antihuman IgM F(ab)2-induced phosphorylation of BLNK at Y96 residue preincubated for 1 hr followed by antihuman IgM F(ab)2 stimulation for 5 mins by MSD high bind plate assay; assay type: cell-based
[3] = molecular target: T1, Tyrosine-protein kinase SYK; experiment: Inhibition of SYK in human whole blood assessed as reduction in anti-FCepsilonR1 mAb-induced basophil activation by measuring decrease in CD63 surface expression incubated for 60 mins followed by anti-FCepsilonR1 mAb stimulation for 20 mins by flow cytometry analysis; assay type: tissue-based
[4] = Solubility of compound at pH 7.4; assay type: physicochemical; details: buffer
[5] = Solubility of compound at pH 2; assay type: physicochemical; details: buffer
[6] = Clearance in human liver microsomes; assay type: ADME, Microsome
[7] = Distribution coefficient, logD of compound; assay type: physicochemical; details: octanol/water

IC50 [1]	EC50 [2]	EC50 [3]	solubility [4]	solubility [5]	CLhep predicted [6]	logD [7]	Structure (SMILES)
3.2 nM	37 nM	154 nM	2 µM (≈ 0.937 µg/mL)	> 100 µM	2.33 mL/min/kg	–	c1cn2cc(-c3cnc4cn[nH]c4n3)nc(Nc3ccc(N4CCN(C5COC5)CC4)cc3)c2n1
11.5 nM	192 nM	–	3 µM (≈ 1.41 µg/mL)	> 100 µM	2.83 mL/min/kg	–	c1cn2cc(-c3cnc4nc[nH]c4n3)nc(Nc3ccc(N4CCN(C5COC5)CC4)cc3)c2n1
44.1 nM	107 nM	234 nM	2 µM (≈ 0.969 µg/mL)	99 µM (≈ 48 µg/mL)	4.33 mL/min/kg	–	c1cn2cc(-c3ccc4c(n3)NCCO4)nc(Nc3ccc(N4CCN(C5COC5)CC4)cc3)c2n1
11.3 nM	18 nM	128 nM	< 1 µM	99 µM (≈ 46.2 µg/mL)	6.33 mL/min/kg	–	c1cn2cc(-c3ccc4cc[nH]c4n3)nc(Nc3ccc(N4CCN(C5COC5)CC4)cc3)c2n1
6.7 nM	23 nM	86 nM	5 µM (≈ 2.34 µg/mL)	> 100 µM	4.67 mL/min/kg	–	c1cn2cc(-c3ccc4cn[nH]c4n3)nc(Nc3ccc(N4CCN(C5COC5)CC4)cc3)c2n1
6.9 nM	46 nM	78 nM	1 µM (≈ 0.467 µg/mL)	> 100 µM	3.83 mL/min/kg	–	c1cn2cc(-c3cnc4cc[nH]c4c3)nc(Nc3ccc(N4CCN(C5COC5)CC4)cc3)c2n1
15.7 nM	26 nM	381 nM	15 µM (≈ 6.98 µg/mL)	> 100 µM	5.17 mL/min/kg	–	c1cn2cc(-c3ccc4cc[nH]c4c3)nc(Nc3ccc(N4CCN(C5COC5)CC4)cc3)c2n1
1.7 nM	11 nM	48 nM	5 µM (≈ 2.34 µg/mL)	> 100 µM	3.33 mL/min/kg	–	c1cn2cc(-c3cnc4cc[nH]c4n3)nc(Nc3ccc(N4CCN(C5COC5)CC4)cc3)c2n1
44.3 nM	268 nM	308 nM	52 µM (≈ 23 µg/mL)	> 100 µM	2.17 mL/min/kg	–	Nc1cccc(-c2cn3ccnc3c(Nc3ccc(N4CCN(C5COC5)CC4)cc3)n2)n1
31.9 nM	66 nM	89 nM	90 µM (≈ 42.1 µg/mL)	> 100 µM	2.83 mL/min/kg	–	c1cn2cc(-c3ccc4nc[nH]c4n3)nc(Nc3ccc(N4CCN(C5COC5)CC4)cc3)c2n1

Second part, the compound before the results:

Structure (SMILES)	IC50 [1]	EC50 [2]	EC50 [3]	solubility [4]	solubility [5]	CLhep predicted [6]	logD [7]
c1cn2cc(-c3ccc4cn[nH]c4c3)nc(Nc3ccc(N4CC5(COC5)C4)cc3)c2n1	5 nM	63 nM	1500 nM	< 1 µM	88 µM (≈ 37.3 µg/mL)	11 mL/min/kg	1.9 to 2.7
OC[C@H]1CN(c2ccc(Nc3nc(-c4ccc5cn[nH]c5c4)cn4ccnc34)cc2)CCO1	1.1 nM	29 nM	501 nM	1.2 µM (≈ 0.53 µg/mL)	87 µM (≈ 38.4 µg/mL)	4.33 mL/min/kg	1.9 to 2.7
c1cn2cc(-c3ccc4c(c3)NCCO4)nc(Nc3ccc(N4CCN(C5COC5)CC4)cc3)c2n1	21.5 nM	46 nM	1230 nM	29 µM (≈ 14 µg/mL)	> 100 µM	15.2 mL/min/kg	–
C[C@@H]1CN(c2ccc(Nc3nc(-c4ccc5cn[nH]c5c4)cn4ccnc34)cc2)C[C@H](C)O1	4.9 nM	45 nM	885 nM	< 1 µM	86 µM (≈ 37.8 µg/mL)	2.5 mL/min/kg	1.9 to 2.7
c1cn2cc(-c3ccc4cn[nH]c4c3)nc(Nc3ccc(N4C[C@H]5CC[C@@H](C4)O5)cc3)c2n1	5.3 nM	162 nM	2330 nM	< 1 µM	24 µM (≈ 10.5 µg/mL)	9.5 mL/min/kg	1.9 to 2.7
c1cn2cc(-c3ccc4cn[nH]c4c3)nc(Nc3ccc(N4CC5(CCOCC5)C4)cc3)c2n1	9 nM	82 nM	2180 nM	3 µM (≈ 1.35 µg/mL)	77 µM (≈ 34.8 µg/mL)	4 mL/min/kg	1.9 to 2.7
c1cn2cc(-c3ccc4cn[nH]c4c3)nc(Nc3ccc(N4CCOCC4)cc3)c2n1 [ENTOSPLETINIB]	–	–	–	6 µM (≈ 2.47 µg/mL)	13 µM (≈ 5.35 µg/mL)	5.17 mL/min/kg	2.5
c1cn2cc(-c3ccc4cn[nH]c4c3)nc(Nc3ccc(N4CC5COCC5C4)cc3)c2n1 (stereo not drawn)	9.6 nM	187 nM	2210 nM	< 1 µM	24 µM (≈ 10.5 µg/mL)	4.5 mL/min/kg	1.9 to 2.7
c1cn2cc(-c3ccc4cn[nH]c4c3)nc(Nc3ccc(N4[C@H]5COC[C@@H]4COC5)cc3)c2n1	13.7 nM	33 nM	133 nM	< 1 µM	< 1 µM	9.83 mL/min/kg	1.9 to 2.7
c1cn2cc(-c3cnc4cn[nH]c4c3)nc(Nc3ccc(N4CCN(C5COC5)CC4)cc3)c2n1	2.8 nM	13 nM	47 nM	1 µM (≈ 0.468 µg/mL)	> 100 µM	3.17 mL/min/kg	–
Nc1cncc(-c2cn3ccnc3c(Nc3ccc(N4CCN(C5COC5)CC4)cc3)n2)c1	28.6 nM	162 nM	196 nM	87 µM (≈ 38.5 µg/mL)	98 µM (≈ 43.4 µg/mL)	4.33 mL/min/kg	–
OC1CN(c2ccc(Nc3nc(-c4ccc5cn[nH]c5c4)cn4ccnc34)cc2)C1	11.3 nM	57 nM	723 nM	4 µM (≈ 1.59 µg/mL)	78 µM (≈ 31 µg/mL)	12.5 mL/min/kg	1.9 to 2.7
OC1CCN(c2ccc(Nc3nc(-c4ccc5cn[nH]c5c4)cn4ccnc34)cc2)CC1	1.2 nM	33 nM	591 nM	3 µM (≈ 1.28 µg/mL)	84 µM (≈ 35.7 µg/mL)	4.67 mL/min/kg	1.9 to 2.7
Nc1cccc(-c2cn3ccnc3c(Nc3ccc(N4CCN(C5COC5)CC4)cc3)n2)c1	54.6 nM	220 nM	939 nM	84 µM (≈ 37.1 µg/mL)	> 100 µM	3.83 mL/min/kg	–
c1cn2cc(-c3ccc4cn[nH]c4c3)nc(Nc3ccc(N4C[C@@H]5C[C@H]4CO5)cc3)c2n1	5 nM	113 nM	1500 nM	< 1 µM	79 µM (≈ 33.5 µg/mL)	11 mL/min/kg	1.9 to 2.7
COCCN1CCN(c2ccc(Nc3nc(-c4ccc5cn[nH]c5c4)cn4ccnc34)cc2)CC1	0.9 nM	23 nM	267 nM	< 1 µM	> 100 µM	8.67 mL/min/kg	1.9 to 2.7
O=S1(=O)CCN(c2ccc(Nc3nc(-c4ccc5cn[nH]c5c4)cn4ccnc34)cc2)CC1	19.5 nM	33 nM	1190 nM	3 µM (≈ 1.38 µg/mL)	26 µM (≈ 11.9 µg/mL)	8.17 mL/min/kg	1.9 to 2.7
CCN1CCN(c2ccc(Nc3nc(-c4ccc5cn[nH]c5c4)cn4ccnc34)cc2)CC1	0.8 nM	36 nM	456 nM	10 µM (≈ 4.39 µg/mL)	> 100 µM	3.33 mL/min/kg	1.9 to 2.7
